According to patent US10076519B2 (CYTOKINETICS, INC., priority 2010, dated 2018):

Tested on: rabbit skeletal myofibrils (fast skeletal myofibrils)
Test: Activation of fast skeletal myofibrils (PUMA assay, PK/LDH-coupled ATPase at pCa25)
Type: biochemical
Conditions: AC1.4 determined according to the procedure of Example 39; reported as class symbols
Experimental: Preparation of Fast Skeletal Myofibrils.
Rabbit skeletal myofibrils were prepared based upon the method of Herrmann et al. (Biochem. 32(28):7255-7263(1993). Myofibrils were prepared from rabbit psoas muscle purchased from Pel-Freez Biologicals (Arkansas) within 2 days of ordering, stored on ice. Minced muscle was homogenized in 10 volumes of ice-cold “standard” buffer (50 mM Tris, pH 7.4, 0.1M potassium acetate, 5 mM KCl, 2 mM DTT, 0.2 mM PMSF, 10 μM leupeptin, 5 μM pepstatin, and 0.5 mM sodium azide) containing 5 mM EDTA and 0.5% Triton X-100 using an Omni-Macro homogenizer. Myofibrils were recovered by low speed centrifugation (3000 rpm for 10 minutes) and washed 2 times in the Triton X-100 containing buffer to ensure removal of cellular membrane. Following the Triton washes, myofibrils were washed 3 times in “standard” buffer containing 2 mM magnesium acetate. A final wash in assay buffer (12 mM PIPES, pH 6.8, 60 mM KCl, 1 mM DTT) was performed and brought to 10% sucrose for flash freezing in liquid nitrogen and storage at −80° C.
Activation of Fast Skeletal Myofibrils.
Fast fiber activators were identified by measuring the enzymatic activity of muscle myofibril preparations using the proprietary PUMA™ (see, e.g., U.S. Pat. Nos. 6,410,254, 6,743,599, 7,202,051, and 7,378,254) assay system. Myofibril preparations consisted of rabbit skeletal muscle (approximately 90% fast fibers) that had been mechanically homogenized and washed with a detergent (triton X-100) to remove cellular membranes. This preparation retained all of the sarcomeric components in a native conformation and the enzymatic activity was still regulated by calcium. Compounds were tested using a myofibril suspension and a level of calcium sufficient to increase enzymatic activity of the myofibrils to 25% of their maximal rate (termed pCa25). Enzymatic activity was tracked via a pyruvate kinase and lactate dehydrogenase-coupled enzyme system. This assay regenerates myosin-produced ADP into ATP by oxidizing NADH, producing an absorbance change at 340 nm. The buffering system was 12 mM Pipes, 2 mM MgCl2, 1 mM DTT at pH 6.8 (PM12 buffer).
Using procedures similar to those described herein, utilizing reagents and intermediates commercially available (e.g., Sigma-Aldrich, St. Louis, Mo.) or readily synthesized by one of skill in the art, the compounds in Table 2 were synthesized, characterized and tested. AC1.4 values were determined according to the procedure described in Example 39, and the reported median AC1.4 values are as follows: A=<1 uM; B=1-10 uM; C=10-20 uM; D=>20 uM.

SMILES | Mean AC1.4
CC(C)(O)c1cccc(C(C)(C)CNc2ccc(-c3ccc4[nH]nc(N)c4c3)nn2)c1 | C (C=10-20 uM)
CC(C)(CNc1ccc(-c2ccc3[nH]nc(N)c3c2)nn1)c1ccc(CCO)cc1 | B (B=1-10 uM)
CC(C)(O)c1ccc(C(C)(C)CNc2ccc(-c3ccc4[nH]nc(N)c4c3)nn2)cc1 | D (D=>20 uM)
Oc1ccnc(C2(CNc3ccc(-c4ccc5[nH]ncc5c4)nn3)CCC2)c1 | D (D=>20 uM)
CC(C)(CNc1ccc(-c2ccc3nc(N)[nH]c(=O)c3c2)nn1)c1ccc(F)cc1 | A (A=<1 uM)
CC(C)(CNc1ccc(-c2cc(=O)[nH]c(N)n2)nn1)c1ccc(F)cc1 | B (B=1-10 uM)
NC(=O)c1cccc(-c2ccc(NCC3(c4ncccc4F)CCC3)nn2)c1F | B (B=1-10 uM)
CC(C)(CNc1ccc(-c2ccc3[nH]nc(N)c3c2)nn1)c1cccc(O)c1 | B (B=1-10 uM)
CC(C)(CNc1ccc(-c2ccc3[nH]nc(N)c3c2)nn1)c1cccc(C#N)c1 | A (A=<1 uM)
CC(C)(CNc1ccc(-c2ccc3[nH]nc(N)c3c2)nn1)c1cccc(C(N)=O)c1 | D (D=>20 uM)
NC(=O)c1cccc(-c2ccc(NCC3CCCc4ccccc43)nn2)c1 (centres unmarked) | B (B=1-10 uM)
NC(=O)c1cccc(-c2ccc(NCCc3ccccc3Cl)nn2)c1 | B (B=1-10 uM)
CCCC(CNc1ccc(-c2cccc(C(N)=O)c2)nn1)c1ccccc1Cl (centres unmarked) | B (B=1-10 uM)
CC(CNc1ccc(-c2cccc(C(N)=O)c2)nn1)c1ccccc1F (centres unmarked) | B (B=1-10 uM)
CC(CNc1ccc(-c2cccc(C(N)=O)c2)nn1)N1CCCCC1=O (centres unmarked) | D (D=>20 uM)
CC(CNc1ccc(-c2cccc(C(N)=O)c2)nn1)N1CCCC1=O (centres unmarked) | D (D=>20 uM)
N#Cc1cccc(-c2ccc(NCCc3ccc(Cl)cc3Cl)nn2)c1 | D (D=>20 uM)
NC(=O)c1cccc(-c2ccc(NCCc3ccc(Cl)cc3Cl)nn2)c1 | C (C=10-20 uM)
NC(=O)c1cccc(-c2ccc(NCCc3ccc(F)cc3F)nn2)c1 | D (D=>20 uM)
NC(=O)c1cccc(-c2ccc(NCCc3cccc(Cl)c3)nn2)c1 | B (B=1-10 uM)
NC(=O)c1cccc(-c2ccc(NCCc3ccc(Cl)c(Cl)c3)nn2)c1 | C (C=10-20 uM)
NC(=O)c1cccc(-c2ccc(NCCc3ccc(F)c(F)c3)nn2)c1 | C (C=10-20 uM)
NC(=O)c1cccc(-c2ccc(NCCc3cc(F)cc(F)c3)nn2)c1 | D (D=>20 uM)

SMILES | Mean AC1.4
NC(=O)c1cccc(-c2ccc(NCCc3ccc(Cl)cc3)nn2)c1 | D (D=>20 uM)
NC(=O)c1cccc(-c2ccc(NCCc3ccc(F)cc3)nn2)c1 | D (D=>20 uM)
COc1ccc(CCNc2ccc(-c3cccc(C(N)=O)c3)nn2)cc1 | D (D=>20 uM)
Cc1ccc(CCNc2ccc(-c3cccc(C(N)=O)c3)nn2)cc1 | C (C=10-20 uM)
NC(=O)c1cccc(-c2ccc(NCC(CC3OCCO3)c3ccccc3F)nn2)c1 (centres unmarked) | D (D=>20 uM)
C[C@@H](CNc1ccc(-c2cccc(C(N)=O)c2)nn1)c1ccc(F)cc1 | B (B=1-10 uM)
C[C@H](CNc1ccc(-c2cccc(C(N)=O)c2)nn1)c1ccc(F)cc1 | B (B=1-10 uM)
NC(=O)c1cccc(-c2ccc(N[C@@H]3C[C@H]3c3ccccc3)nn2)c1 | D (D=>20 uM)
NC(=O)c1cccc(-c2ccc(NCC3(c4ncccc4F)CCC3)nn2)c1 | A (A=<1 uM)
NC(=O)c1cccc(-c2ccc(NCC3(c4ccc(F)cn4)CCC3)nn2)c1 | B (B=1-10 uM)
CC(C)(C)OC(=O)N(CC(C)(C)c1ncccc1F)c1ccc(-c2cccc(C(N)=O)c2)nn1 | D (D=>20 uM)
CC(C)(C)OC(=O)N(CC(C)(C)c1ccc(F)cc1)c1ccc(-c2cc(C(N)=O)ccc2F)nn1 | D (D=>20 uM)
CC(C)(C)OC(=O)N(CC(C)(C)c1ccc(F)cc1)c1ccc(-c2cccc(C(N)=O)c2)nn1 | D (D=>20 uM)
NC(=O)c1ccc(-c2ccc(NCC3(c4ncccc4F)CCC3)nn2)c(F)c1 | B (B=1-10 uM)
CC(C)(CNc1ccc(-c2ccc3[nH]nc(N)c3c2)nn1)c1ccc(C(N)=O)cc1 | D (D=>20 uM)
CC(C)(CNc1ccc(-c2ccc3[nH]nc(N)c3c2)nn1)c1ccc(C#N)cc1 | A (A=<1 uM)
NC(=O)c1ccc(-c2ccc(NCC3(c4ncccc4F)CCC3)nn2)cc1 | B (B=1-10 uM)
CC(C)(CNc1ccc(C(=O)N2CCN(C(N)=O)CC2)nn1)c1ccc(F)cc1 | D (D=>20 uM)
NC(=O)c1ccc(F)c(-c2ccc(NCC3(c4ccccn4)CCC3)nn2)c1 | A (A=<1 uM)
NC(=O)c1ccc(F)c(-c2ccc(NCC3(c4ncccc4F)CCC3)nn2)c1 | A (A=<1 uM)
COc1ccnc(C2(CNc3ccc(-c4cc(C(N)=O)ccc4F)nn3)CCC2)c1 | B (B=1-10 uM)
NC(=O)c1ccc(F)c(-c2ccc(NCC3(c4cccc(O)n4)CCC3)nn2)c1 | D (D=>20 uM)
COc1cccc(C2(CNc3ccc(-c4cc(C(N)=O)ccc4F)nn3)CCC2)n1 | A (A=<1 uM)

SMILES | Mean AC1.4
CC(C)(CNc1ccc(-c2ccc3[nH]c(=O)[nH]c3c2)nn1)c1ccccc1CO | B (B=1-10 uM)
CC(C)(CNc1ccc(-c2ccc3[nH]c(=O)[nH]c3c2)nn1)c1ccccc1F | A (A=<1 uM)
CC(C)(CNc1ccc(-c2ccc3oc(=O)[nH]c3c2)nn1)c1ccc(F)cc1 | B (B=1-10 uM)
CC(C)(Cc1ccc(F)cc1)Nc1ccc(-c2ccc3[nH]c(=O)[nH]c3c2)nn1 | D (D=>20 uM)
CC(C)(CNc1ccc(-c2ccc3[nH]c(=O)[nH]c3c2)nn1)c1ccccc1 | A (A=<1 uM)
CC(C)(C)CNc1ccc(-c2ccc3[nH]c(=O)[nH]c3c2)nn1 | D (D=>20 uM)
O=c1ncc(-c2ccc(NCC3(c4ccc(F)cc4)CCC3)nn2)c[nH]1 | B (B=1-10 uM)
O=c1[nH]c2ccc(-c3ccc(NCC4(c5ccc(F)cc5)CC4)nn3)cc2[nH]1 | A (A=<1 uM)
CC(C)(CNc1ccc(-c2ccc3[nH]c(=O)oc3c2)nn1)c1ccc(F)cc1 | A (A=<1 uM)
CC(C)(CNc1ccc(-c2ccc3nc[nH]c(=O)c3c2)nn1)c1ccc(F)cc1 | B (B=1-10 uM)
CC(C)(C)OC(=O)N(CC(C)(C)c1ccc(F)cc1)c1ccc(-c2cc(=O)[nH]c(N)n2)nn1 | B (B=1-10 uM)
CC(C)(CNc1ccc(-c2ccc3[nH]nc(N)c3c2)nn1)c1ccccc1CO | B (B=1-10 uM)
CN(C)CCc1cccc(C(C)(C)CNc2ccc(-c3ccc4[nH]nc(N)c4c3)nn2)c1 | D (D=>20 uM)
CC(C)(CNc1ccc(-c2ccc3[nH]nc(N)c3c2)nn1)c1cccc(CO)c1 | B (B=1-10 uM)
CC(C)(CNc1ccc(-c2ccc3[nH]nc(N)c3c2)nn1)c1ccc(CO)cc1 | D (D=>20 uM)
CC1(C)CC1(CNc1ccc(-c2ccc3[nH]nc(N)c3c2)nn1)c1ccccc1 (centres unmarked) | A (A=<1 uM)
Nc1n[nH]c2ccc(-c3ccc(NCC4(c5ccccc5)CCC4)nn3)cc12 | A (A=<1 uM)
Nc1n[nH]c2ccc(-c3ccc(NCC4(c5ccccc5)CC4)nn3)cc12 | A (A=<1 uM)
CC(C)(CNc1ccc(CO)nn1)c1ccc(F)cc1 | D (D=>20 uM)
CN(C)Cc1cccc(C(C)(C)CNc2ccc(-c3ccc4[nH]nc(N)c4c3)nn2)c1 | D (D=>20 uM)
CN(C)Cc1ccc(C(C)(C)CNc2ccc(-c3ccc4[nH]nc(N)c4c3)nn2)cc1 | D (D=>20 uM)
CC(C)(C)OC(=O)N1CCN(C(=O)c2ccc(NCC(C)(C)c3ccc(F)cc3)nn2)C(CO)C1 (centres unmarked) | D (D=>20 uM)
